Legend:
Lambda DNA = assay: Ethidium bromide displacement, lambda DNA; assay type: binding; details: 1 μM DNA, 1.26 μM ethidium bromide, pH 7.0, read-out: FI50, Lambda DNA
Method: A 10× Binding solution was prepared by combining 0.93 ml of an aqueous NaCl solution (5M), 2.0 ml of an aqueous Tris HCl (500 mM) solution, 0.1 ml of an EDTA solution (500 mM) and 46.97 ml of water. The resultant solution was 93 mM in NaCl, 20 mM in Tris HCl, and 1 mM in EDTA. Stock DNA solution were prepared as follows: Poly (dG·dC)-(dG·dC) (ε254=8.4/mM; 27-7910-02), poly(dA·dT)-(dA·dT) (ε262=6.6/mM; 27-7870-02), and lambda DNA (ε260-7.0/mM; 27-4111-01) were purchased from Pharmacia. Solutions were prepared by resuspending either poly (dG·dC)-(dG·dC) or poly(dA·dT)-(dA·dT)in 1 ml of 10× DNA Binding Solution. Lambda DNA is already in solution as purchased.
Poly (dG·dC)-(dG·dC), poly(dA·dt)-(dA·dt) and lambda DNA concentrations were determined as follows: 980 μl of 10× DNA Binding Solution was pipetted into a 1 ml cuvette. A blank was run on the UV spectrophotometer. 20 μl of the DNA stock of unknown concentration was then added into the cuvette. The sample was then scanned between 210 nm to 500 nm and the absorbance recorded at 254 nm for poly(dG·dC)-(dG·dC), at 262 nm for poly(dA·dT)-(dA·dT) and at 260 nm for lambda DNA. The solution was transferred to a clean tube. This procedure was followed for three different solutions with the absorbance taken as the average of the three. The concentration of poly(dG·dC)-(dG·dC) stock was calculated to be A254 /8.4×1000 (in μM). The concentration of poly(dA·dT)-(dA·dT) stock was calculated to be A262 /6.6×1000 (in μM). The concentration of lambda DNA stock was calculated to be A260 /7.0×1000 (in μM).
The binding of the bis-naphthalimides to DNA and to synthetic polynucleotide duplexes was determined by an ethidium bromide displacement assay that measures the reduction of fluorescence when ethidium bromide is displaced from DNA (Baguley, 1981). The fluorescence intensity of a 3 ml solution containing 9.3 mM NaCl, 2 mM Tris-HCl (pH 7.0), 100 μM EDTA, 1 μM DNA (in nucleotides) and 1.26 μM ethidium bromide in a quartz cuvette was measured at the excitation (546 nm) and emission (600 nm) wavelengths on a Shimadzu RF5000U spectrofluorometer. Graded concentrations of agent were then added and the fluorescence intensity was measured. The concentration of compound required to reduce the fluorescence intensity by 50% of that of control (FI50) was determined. Therefore, the lower the FI50 the stronger the binding affinity a particular compound has for DNA.
The ability of bis-naphthalimides of the present invention and the known anti-cancer agents compound 22 and DMP840, (R,R)-2,2'[1,2-ethanediylbis[imino(1-methyl-2,1-ethanediyl)]]-bis[5-nitro- 1H benz[de]isoquinoline-1,3-(2H)dione]dimethanesulfonate, to bind to DNA and to synthetic oligonucleotide duplexes was measured using an ethidium bromide displacement assay. Ethidium bromide, a known DNA intercalator, has no fluorescence in the absence of DNA; however, fluorescence intensity increases when ethidium bromide binds to DNA. The ethidium bromide displacement assay measures the decrease in fluorescence intensity caused by DNA-bound ethidium bromide with DNA interacting agents.

[1] = system: P388 murine leukemic cell line; assay: In vitro growth inhibition (MTT), P388 leukemia; assay type: cell-based; details: 3 days
From the text: P388 murine leukemic cell line was obtained from the DCT Tumor Repository (National Cancer Institute, Frederick Cancer Research and Development, Frederick Md. 21702). HT29 Human Colon Carcinoma cell line was obtained from the American Type Culture Collection (12301 Parklawn Drive, Rockville, Md. 20852). B16 Melanoma cell line was obtained from DuPont Merck Pharmaceutical Company (Glenolden, Pa. 19036). MCF-7 Human Breast Carcinoma cell line was a gift from Dr. K. Osborne (Department of Medicine, The University of Texas Health Science Center at San Antonio, San Antonio, Tex. 78284). All cell lines were incubated at 37° C. in a humidified atmosphere of 5% CO2 -95% air. Murine B16 melanoma cell line was grown in RPMI 1640 medium supplemented with 10% heat-inactivated fetal bovine serum, 2 mM L-glutamine, 50 units/ml penicillin, 50 μg/ml streptomycin, 25 μg/ml gentamycin, 0.75% sodium bicarbonate, 10 mM HEPES buffer (pH 7.4), and 0.06 mg/ml AntiPPLO. Murine P388 leukemic and the human HT-29 colon adenocarcinoma cell lines were maintained in RPMI 1640 medium supplemented with 10% heat-inactivated fetal bovine serum. MCF-7M human breast adenocarcinoma was maintained in IMEM medium supplemented with 5% non heat-inactivated fetal bovine serum and 1 nM insulin.
Exponentially growing cells (1-2×10^3 cells, unless specified otherwise) in 0.1 ml medium were seeded on day 0 in a 96-well microtiter plate. On day 1, 0.1 ml aliquots of medium containing graded concentrations of test compounds were added in duplicate to the cell plates. After incubation at 37° C. in a humidified incubator for 3 days (P388, B16) or 6 days (HT-29, MCF-7M), the plates were centrifuged briefly and 100 μl of the growth medium was removed. Cell cultures were incubated with 50 μl of 3-(4,5-dimethylthiazol-2-yl)-2,5-diphenyl-tetrazolium bromide [MTT, 1 mg/ml in Dulbecco's phosphate buffered saline (PBS)] for 4 hr at 37° C. The resulting purple formazan precipitate was solubilized with 200 μl of 0.04N HCl in isopropyl alcohol. Absorbance was monitored in a BioRad Model 3550 Microplate Reader at a test wavelength of 570 nm and a reference wavelength of 630 nm. The absorbance was transferred to a PC 486 computer. The IC50 values were determined by a computer program (EZ-ED50) that fit all of the data to the following four-parameterlogistic equation:
Y=((Am -Ao)/(1+(X/IC50)^n))+Ao
where Am is the absorbance of control cells, Ao is the absorbance of cells in the presence of highest agent concentration, Y is the observed absorbance, X is the agent concentration, IC50 is the concentration of agent that inhibits the cell growth by 50% of control cells (based on the absorbance) and n is the slope of the curve.

Substance: 8-(3'-nitro-1',8'-naphthalimide)-3,6-diazaoctylamine dichloroplatinum(II) [Compound 21]
- IC50 (Lambda DNA): 235 nM
- IC50 [1]: 302 nM
